Measurements: patent US7462735B2, “Amino acid diamides in non α position which are useful as adjuvants for administration of biological active agents” (Laboratorios Farmaceuticos Rovi, S.A., priority 2003, dated 2008)

Assays:
[1] = Intracolonic absorption of bemiparin in the rat, with or without adjuvant (plasma anti-Xa activity); assay type: in vivo; details: for effect on colonic absorption of bemiparin measured by plasma anti-Xa activity: adjuvant given with bemiparin, result in words; for anti-Xa activity/ml in plasma: 30 mg/kg bemiparin (+ 30 mg/kg adjuvant)
Description: The properties of the invention products have been investigated in an experimental model described below that consists of measuring the intracolonic absorption in the rat of a low-molecular-weight heparin, bemiparin, with a mean molecular mass of around 3,500 daltons and an anti-Xa activity of around 100 units/mg.
The activity of all compounds of the examples described above was studied in animals according to the following experimental model:
Evaluate the absorption of the test product when administered by intracolonic route to rats, whether or not in the presence of adjuvants. The plasma concentration is measured by assaying the Factor Xa-inhibition capacity. The rat is used because it is one of the species commonly used in this type of test.
One intracolonic administration.
25% (v/v) propylene glycol in bidistilled water. After dissolving the test product along with the adjuvant if applicable, adjust the pH to approximately 7.4 with NaOH.
The animals will be in fasted state for approximately 18 h with free access to water
The animals will be randomized to the various experimental groups, with one remaining animal as a reserve per group:
On the day of the test, the treatments will be administered by intracolonic route, following anaesthesia with ketamine. Administration will be done using a catheter of approximately 8 cm, connected to a 1-ml syringe. The catheter will be introduced in its entirety into the colon through the anus and the test product will be administered slowly into the colon.
Following the administration of the test product, within the times established in the table, a citrated blood sample (3.8% at a ratio of 1:9) will be drawn by intracardiac puncture under anaesthesia with ketamine.
Blood centrifugation: 3000 rpm, 10 minutes, 4° C. Plasma freezing (−20±5° C.) until determining the anti-Factor Xa activity.
A control group that will receive no treatment will be included, simply that one blood sample will be drawn per animal under the same conditions as the treatment group, with considered to be the baseline value of anti-Xa activity.
The anti-Xa activity will be assayed by the chromogenic method (anti-FXa activity assay kit).
The mean, the standard deviation […] and the standard error of the mean of each experimental group will be calculated for each parameter. If considered adequate, the values obtained in the different experimental groups will be compared by a statistical analysis.

Factor Xa = assay: Anti-Xa activity of the heparin material (units/mg); assay type: biochemical; details: specific activity of the heparin material

melting point [°C] | Molecule | other results
209 to 211 | O=C(O)CCCNC(=O)c1ccccc1NC(=O)c1ccc([N+](=O)[O-])cc1O [Example 11, 4-[2-(2-hydroxy-4-nitrobenzoylamino)benzoylamino]butanoic acid] | effect on colonic absorption of bemiparin measured by plasma anti-Xa activity [1]: strong increase
172 to 174 | O=C(O)CCCNC(=O)c1cccc(NC(=O)c2ccccc2O)c1 [Example 3, 4-[3-(2-hydroxybenzoylamino)benzoylamino]butanoic acid] | effect on colonic absorption of bemiparin measured by plasma anti-Xa activity [1]: no effect
142 to 144 | O=C(O)CCCNC(=O)c1ccccc1NC(=O)c1ccccc1[N+](=O)[O-] [Example 8, 4-[2-(2-nitrobenzoylamino)benzoylamino]butanoic acid] | 
191 to 193 | COc1ccc(O)c(C(=O)Nc2ccccc2C(=O)NCCCC(=O)O)c1 [Example 14, 4-[2-(2-hydroxy-5-methoxybenzoylamino)benzoylamino]butanoic acid] | 
172 to 174 | COc1ccc(C(=O)Nc2ccccc2C(=O)NCCCC(=O)O)cc1 [Example 16, 4-[2-(4-methoxybenzoilamino)benzoilamino]butanoic acid] | 
205 to 206 | O=C(O)CCCNC(=O)c1ccccc1NC(=O)c1ccc(Cl)cc1O [Example 18, 4-[2-(4-chloro-2-hydroxybenzoylamino)benzoylamino]butanoic acid] | 
201 to 203 | COc1ccc(C(=O)Nc2ccccc2C(=O)NCCCC(=O)O)c(O)c1 [Example 13, 4-[2-(2-hydroxy-4-methoxybenzoylamino)benzoylamino]butanoic acid] | 
211 to 213 | O=C(O)CCCNC(=O)c1ccc(NC(=O)c2ccccc2O)cc1 [Example 1, 4-[4-(hydroxybenzoylamino)benzoylamino]butanoic acid] | effect on colonic absorption of bemiparin measured by plasma anti-Xa activity [1]: no effect
 | Bemiparin | anti-Xa activity/ml in plasma ([1]; 0.5 h post-administration): 0.103; anti-Xa activity/ml in plasma ([1]; 2 h post-administration): 0.222; anti-Xa activity/ml in plasma ([1]; 4 h post-administration): 0.345; anti-Xa activity (Factor Xa): around 100 units/mg
206 to 208 | O=C(O)CCCNC(=O)c1ccccc1NC(=O)c1ccc([N+](=O)[O-])cc1 [Example 15, 4-[2-(4-nitrobenzoylamino)benzoylamino]butanoic acid] | 
222 to 223 | O=C(O)CCCNC(=O)c1ccccc1NC(=O)c1cc(Cl)ccc1O [Example 19, 4-[2-(5-chloro-2-hydroxybenzoylamino)benzoylamino]butanoic acid] | 
124 to 125 | O=C(O)CCCCCCCNC(=O)c1ccccc1NC(=O)c1ccccc1O [Example 6, 8-[2-(2-hydroxybenzoylamino)benzoylamino]octanoic acid] | 
200 to 202 | O=C(O)CCNC(=O)c1ccccc1NC(=O)c1ccccc1O [Example 9, 3-[2-(2-hydroxybenzoylamino)benzoylamino]propanoic acid] | 
239 to 241 | O=C(O)CCCNC(=O)c1ccccc1NC(=O)c1cc([N+](=O)[O-])ccc1O [Example 12, 4-[2-(2-hydroxy-5-nitrobenzoylamino)benzoylamino]butanoic acid] | 
182 to 184 | O=C(O)CCCNC(=O)c1ccccc1NC(=O)c1ccc(Cl)cc1 [Example 17, 4-[2-(4-chlorobenzoylamino)benzoylamino]butanoic acid] | effect on colonic absorption of bemiparin measured by plasma anti-Xa activity [1]: strong increase
117 to 118 | O=C(O)CCCNC(=O)c1ccccc1NC(=O)c1ccccc1Br [Example 21, 4-[2-(2-bromobenzoylamino)benzoylamino]butanoic acid] | 
201 to 203 | O=C(O)CCCCCNC(=O)c1ccc(NC(=O)c2ccccc2O)cc1 [Example 2, 6-[4-(2-hydroxybenzoylamino)benzoylamino]hexanoic acid] | effect on colonic absorption of bemiparin measured by plasma anti-Xa activity [1]: no effect
165 to 166 | O=C(O)CCCNC(=O)c1ccccc1NC(=O)c1cccc(Cl)c1 [Example 22, 4-[2-(3-chlorobenzoylamino)benzoylamino]butanoic acid] | 
168 to 170 | O=C(O)CCCCNC(=O)c1ccccc1NC(=O)c1ccccc1O [Example 5, 5-[2-(2-hydroxybenzoylamino)benzoylamino]pentanoic acid] | 
110 to 112 | O=C(O)CCCNC(=O)c1ccccc1NC(=O)c1ccccc1Cl [Example 20, 4-[2-(2-chlorobenzoylamino)benzoylamino]butanoic acid] | 
173 to 174 | O=C(O)CCCNC(=O)c1ccccc1NC(=O)c1ccccc1O [Example 4, 4-[2-(2-hydroxybenzoylamino)benzoylamino]butanoic acid] | effect on colonic absorption of bemiparin measured by plasma anti-Xa activity [1]: strong increase
165 to 167 | O=C(O)CCCCCNC(=O)c1ccccc1NC(=O)c1ccccc1O [Example 7, 6-[2-(2-hydroxybenzoylamino)benzoylamino]hexanoic acid] | 
